These results are taken from patent publication US8664257B2, “Oxygen-substituted 3-heteroaroylamino-propionic acid derivatives and their use as pharmaceuticals” (Sanofi, priority 2010, dated 2014).

A value given as a limit tells only on which side of the number the result lay.

One experiment deals with T1, Recombinant human cathepsin A (Homo sapiens, UniProt P10619).
T1 construct: Recombinant human cathepsin A (residues 29-480, with a C-terminal 10-His tag); 10-His (C); purchased R&D Systems 1049-SE
T1 sequence (P10619 29-312 limits assumed): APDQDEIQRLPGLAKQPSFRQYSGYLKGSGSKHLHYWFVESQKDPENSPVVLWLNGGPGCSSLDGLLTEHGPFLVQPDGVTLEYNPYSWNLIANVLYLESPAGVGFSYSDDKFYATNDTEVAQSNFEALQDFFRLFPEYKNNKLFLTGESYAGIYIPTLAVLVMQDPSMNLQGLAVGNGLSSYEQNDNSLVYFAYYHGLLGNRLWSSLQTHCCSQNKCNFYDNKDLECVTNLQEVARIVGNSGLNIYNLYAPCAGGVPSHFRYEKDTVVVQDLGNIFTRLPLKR
T1 sequence (P10619 327-480 limits assumed): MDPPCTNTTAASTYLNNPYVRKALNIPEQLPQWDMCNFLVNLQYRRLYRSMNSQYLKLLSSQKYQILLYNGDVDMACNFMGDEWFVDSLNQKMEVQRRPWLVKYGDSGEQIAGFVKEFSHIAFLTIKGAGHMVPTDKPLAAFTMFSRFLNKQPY
The experiment in a line: Cathepsin A inhibitory activity. The experiment is classed as biochemical. As to conditions: pharmacological test "Cathepsin A inhibitory activity"; IC50 given as class A/B/C; read-out: Activity (2): Cathepsin A inhibitory activity, IC50 class. How it is done: a) Cathepsin A Inhibitory Activity
Recombinant human cathepsin A (residues 29-480, with a C-terminal 10-His tag; R&D Systems, #1049-SE) was proteolytically activated with recombinant human cathepsin L (R&D Systems, #952-CY). Briefly, cathepsin A was incubated at 10 μg/ml with cathepsin L at 1 μg/ml in activation buffer (25 mM 2-(morpholin-4-yl)-ethanesulfonic acid (MES), pH 6.0, containing 5 mM dithiothreitol (DTT)) for 15 min at 37° C. Cathepsin L activity was then stopped by the addition of the cysteine protease inhibitor E-64 (N-(trans-epoxysuccinyl)-L-leucine-4-guanidinobutylamide; Sigma-Aldrich, #E3132; dissolved in activation buffer/DMSO) to a final concentration of 10 μM.
The activated cathepsin A was diluted in assay buffer (25 mM MES, pH 5.5, containing 5 mM DTT) and mixed with the test compound (dissolved in assay buffer containing (v/v) 3% DMSO) or, in the control experiments, with the vehicle in a multiple assay plate. After incubation for 15 min at room temperature, as substrate then bradykinin carrying an N-terminal®Bodipy FL (4,4-difluoro-5,7-dimethyl-4-bora-3a,4a-diaza-s-indacene-3-propionyl) label (JPT Peptide Technologies GmbH; dissolved in assay buffer) was added to the mixture. The final concentration of cathepsin A was 833 ng/ml and the final concentration of labeled bradykinin 2 μM. After incubation for 15 min at room temperature the reaction was stopped by the addition of stop buffer (130 mM 2-(4-(2-hydroxy-ethyl)-piperazin-1-yl)-ethanesulfonic acid, pH 7.4, containing (v/v) 0.013% Triton X-100, 0.13% Coating Reagent 3 (Caliper Life Sciences), 6.5% DMSO and 20 μM ebelactone B (Sigma, # E0886)).
Uncleaved substrate and product were then separated by a microfluidic capillary electrophoresis on a LabChip® 3000 Drug Discovery System (12-Sipper-Chip; Caliper Life Sciences) and quantified by determination of the respective peak areas. Substrate turnover was calculated by dividing product peak area by the sum of substrate and product peak areas, and the enzyme activity and the inhibitory effect of the test compound thus quantified. From the percentage of inhibition of cathepsin A activity observed with the test compound at several concentrations, the inhibitory concentration IC50, i.e. the concentration which effects 50% inhibition of enzyme activity was, calculated.
On to `O=C(O)C[C@H](NC(=O)c1cc(O)n(-c2ccccc2Cl)n1)c1ccc(-c2ccc(F)cc2)cc1` [Example 148], for which the IC50 fell in the range of 1000 to 30000 nM.
In the case of `Cc1cccc([C@H](CC(=O)O)NC(=O)c2cc(O)n(-c3ccccc3Cl)n2)c1` [Example 217], the IC50 was in the range of 100 to 1000 nM.
As for `COc1ccc(C(CC(=O)O)NC(=O)c2cc(O)n(-c3ccccc3Cl)n2)c(Cl)c1` (stereo not shown) [Example 210], the IC50 was 100 to 1000 nM.
Same read-out and setting: then `O=C(O)C[C@H](NC(=O)c1cc(O)n(-c2ccc(Cl)cc2)n1)c1ccccc1Br` [Example 270], with 100 to 1000 nM; and `O=C(O)CC(NC(=O)c1cc(O)n(-c2ccccc2)n1)c1cccc(Cl)c1Cl` (stereo not shown) [Example 168], with 100 to 1000 nM; and `Cc1ccc(C(CC(=O)O)NC(=O)c2cc(O)n(-c3ccccc3F)n2)c(C)c1` (stereo not shown) [Example 247], with 100 to 1000 nM.
On the same count and under the same terms, then `O=C(O)C[C@H](NC(=O)c1cc(O)n(-c2ccccc2F)n1)c1cccnc1` [Example 140], with 100 to 1000 nM.

Still in this experiment, the particulars now being: read-out: Activity (2): Cathepsin A inhibitory activity (IC50 class).
Consider `CC(C)(C)[C@](C)(O)COc1cc(C(=O)N[C@@H](CC(=O)O)c2ccccc2Cl)nn1-c1ccccc1F` (single isomer, unassigned) [Example 759], for which the IC50 is less than 100 nM.
On the same count and under the same terms, then `Cc1ccccc1[C@H](CC(=O)O)NC(=O)c1cc(O)n(-c2cccc(Cl)c2F)n1` [Example 589], with 100 to 1000 nM; and `CCOc1cc(C(=O)NC(CC(=O)O)c2cccc(F)c2C)nn1-c1ccccc1F` (stereo not shown) [Example 706], with less than 100 nM; and `COc1cc(C(=O)NC(CC(=O)O)c2ccc(F)cc2C)nn1-c1ccccc1F` (stereo not shown) [Example 677], with less than 100 nM.
On to `O=C(O)CC(NC(=O)c1cc(O)n(-c2ccccc2F)n1)c1ccc(N2CCCC2)cc1` (stereo not shown) [Example 566, 3-{[1-(2-Fluoro-phenyl)-5-hydroxy-1H-pyrazole-3-carbonyl]-amino}-3-(4-pyrrolidin-1-yl-phenyl)-propionic acid], for which the IC50 lay in the range of 1000 to 30000 nM.
On the same count and under the same terms, for `Cc1ccccc1[C@H](CC(=O)O)NC(=O)c1cc(OC(=O)N(C)c2ccccc2)n(-c2ccccc2F)n1` [Example 620] the value was less than 100 nM.
On the same count and under the same terms, for `Cc1ccccc1[C@H](CC(=O)O)NC(=O)c1cc(OCC2CC2)n(-c2ccccc2)n1` [Example 622] the value was less than 100 nM.
As for `Cc1ccccc1[C@H](CC(=O)O)NC(=O)c1cc(OCc2ccccc2C(F)(F)F)n(-c2ccccc2F)n1` [Example 623], the 50% inhibitory concentration (IC50) was 100 to 1000 nM.
Same read-out and setting: for `Cc1ccccc1[C@H](CC(=O)O)NC(=O)c1cc(OCc2cccc(C(F)(F)F)c2)n(-c2ccccc2F)n1` [Example 624] the value was 100 to 1000 nM.

Staying with this experiment, now noted: read-out: Activity (2): Cathepsin A inhibitory activity, IC50 class.
On to `CCCC(CC(=O)O)NC(=O)c1cc(O)n(-c2ccccc2)n1` (stereo not shown) [Example 2], for which the IC50 lay within 1000 to 30000 nM.
Same read-out and setting: for `CC(C)C(C)(O)COc1cc(C(=O)N[C@H](CC(=O)O)Cc2ccc(C#N)cc2)nn1-c1ccccc1F` (stereo partly drawn) [Example 836, (S)-4-(4-Cyano-phenyl)-3-{[1-(2-fluoro-phenyl)-5-(2-hydroxy-2,3-dimethyl-butoxy)-1H-pyrazole-3-carbonyl]-amino}-butyric acid] the value was 1000 to 30000 nM; for `COc1ccc(C(CC(=O)O)NC(=O)c2cc(O)n(-c3ccccc3F)n2)c(F)c1` (stereo not shown) [Example 133], 100 to 1000 nM.
Same read-out and setting: then `CC(C)(C)[C@](C)(O)COc1cc(C(=O)N[C@H](CC(=O)O)Cc2ccc(C#N)cc2)nn1-c1ccccc1F` [Example 832, (S)-4-(4-Cyano-phenyl)-3-{[1-(2-fluoro-phenyl)-5-((S)-2-hydroxy-2,3,3-trimethyl-butoxy)-1H-pyrazole-3-carbonyl]-amino}-butyric acid], with 1000 to 30000 nM; and `CCCCC(CC(=O)O)NC(=O)c1cc(O)n(-c2cc(C)ccc2C)n1` (stereo not shown) [Example 33], with 1000 to 30000 nM.
As to `Cc1cc(F)ccc1C(CC(=O)O)NC(=O)c1cc(O)n(-c2cccc(F)c2)n1` (stereo not shown) [Example 326], the IC50 lay in the range of 100 to 1000 nM.
Same read-out and setting: for `N#Cc1ccc([C@H](CC(=O)O)NC(=O)c2cc(O)n(-c3ccc(Cl)cc3)n2)cc1` [Example 272] the value was 1000 to 30000 nM; for `Cc1ccc(C)c(-n2nc(C(=O)NC(CC(=O)O)c3ccccc3C)cc2O)c1` (stereo not shown) [Example 40], 100 to 1000 nM; for `Cc1ccc(C(CC(=O)O)NC(=O)c2cc(O)n(-c3ccc(F)c(Cl)c3)n2)c(C)c1` (stereo not shown) [Example 91], 1000 to 30000 nM.
The same measure, in the same setting: for `Cc1ccc(C)c(-n2nc(C(=O)NC3(CC(=O)O)CCCC3)cc2O)c1` [Example 42] the value was 1000 to 30000 nM.
Same read-out and setting: for `O=C(O)C[C@H](NC(=O)c1cc(O)n(-c2ccccc2F)n1)c1cccc(F)c1` [Example 400] the value was 100 to 1000 nM; for `O=C(O)CC(NC(=O)c1cc(O)n(-c2ccccc2Cl)n1)c1ccc(-c2ccc(F)cc2)cc1` (stereo not shown) [Example 115], less than 100 nM; for `COc1cccc(C(CC(=O)O)NC(=O)c2cc(O)n(-c3cc(C)ccc3C)n2)c1` (stereo not shown) [Example 28], 1000 to 30000 nM.
Consider `CC(C)(C)[C@](C)(O)COc1cc(C(=O)N[C@@H](CC(=O)O)c2cccc(F)c2)nn1-c1ccccc1F` [Example 819, (S)-3-(3-Fluoro-phenyl)-3-{[1-(2-fluoro-phenyl)-5-((S)-2-hydroxy-2,3,3-trimethyl-butoxy)-1H-pyrazole-3-carbonyl]-amino}-propionic acid], for which the IC50 was less than 100 nM.

Still in this experiment, the particulars now being: recombinant human cathepsin A 833 ng/ml, Bodipy FL-labeled bradykinin 2 μM, pH 5.5; read-out: CATH-A IC50.
Turning to `O=C(O)CC(NC(=O)c1cc(O)n(-c2ccc(Cl)cc2)n1)c1cc(F)ccc1F` (stereo not shown) [Example 472, 3-{[1-(4-Chloro-phenyl)-5-hydroxy-1H-pyrazole-3-carbonyl]-amino}-3-(2,5-difluoro-phenyl)-propionic acid], the IC50 turned out to be 4090 nM.
On the same count and under the same terms, for `O=C(O)CC(NC(=O)c1cc(O)n(-c2ccccc2Cl)n1)c1cc(Cl)ccc1Cl` (stereo not shown) [Example 462, 3-{[1-(2-Chloro-phenyl)-5-hydroxy-1H-pyrazole-3-carbonyl]-amino}-3-(2,5-dichloro-phenyl)-propionic acid] the value was 80.4 nM; for `O=C(O)CC(NC(=O)c1cc(O)n(-c2ccccc2F)n1)c1ccc(N2CCCC2)cc1` (stereo not shown) [Example 566, 3-{[1-(2-Fluoro-phenyl)-5-hydroxy-1H-pyrazole-3-carbonyl]-amino}-3-(4-pyrrolidin-1-yl-phenyl)-propionic acid], 2990 nM; for `O=C(O)CC(NC(=O)c1cc(O)n(-c2ccc(Cl)cc2)n1)c1ccc(-c2ccccn2)cc1` (stereo not shown) [Example 515, 3-{[1-(4-Chloro-phenyl)-5-hydroxy-1H-pyrazole-3-carbonyl]-amino}-3-(4-pyridin-2-yl-phenyl)-propionic acid], 238 nM.
Still for that read-out and setting: then `Cc1c(F)cccc1C(CC(=O)O)NC(=O)c1cc(O)n(-c2ccccc2F)n1` (stereo not shown) [Example 516, 3-(3-Fluoro-2-methyl-phenyl)-3-{[1-(2-fluoro-phenyl)-5-hydroxy-1H-pyrazole-3-carbonyl]-amino}-propionic acid], with 102 nM.
Same read-out and setting: then `COc1cccc(F)c1C(CC(=O)O)NC(=O)c1cc(O)n(-c2ccccc2)n1` (stereo not shown) [Example 441, 3-(2-Fluoro-6-methoxy-phenyl)-3-[(5-hydroxy-1-phenyl-1H-pyrazole-3-carbonyl)-amino]-propionic acid], with 513 nM.

The same experiment, now with this note: recombinant human cathepsin A; read-out: Activity (2): Cathepsin A inhibitory activity, IC50 class.
For the molecule `Cc1ccccc1-n1nc(C(=O)NC(CC(=O)O)c2ccc(-c3ccc(F)cc3)cc2)cc1O` (stereo not shown) [Example 536], the IC50 is less than 100 nM.
On the same count and under the same terms, then `O=C(O)CC(NC(=O)c1cc(O)n(-c2ccc(Cl)cc2)n1)c1cc(F)ccc1F` (stereo not shown) [Example 472, 3-{[1-(4-Chloro-phenyl)-5-hydroxy-1H-pyrazole-3-carbonyl]-amino}-3-(2,5-difluoro-phenyl)-propionic acid], with 1000 to 30000 nM; and `O=C(O)CC(NC(=O)c1cc(O)n(-c2ccccc2Cl)n1)c1cc(Cl)ccc1Cl` (stereo not shown) [Example 462, 3-{[1-(2-Chloro-phenyl)-5-hydroxy-1H-pyrazole-3-carbonyl]-amino}-3-(2,5-dichloro-phenyl)-propionic acid], with less than 100 nM.
On to `COc1cc(C(=O)N[C@@H](CC(=O)N[C@H](C)C(C)C)c2ccccc2C)nn1-c1ccccc1F` [Example 939, 1-(2-Fluoro-phenyl)-5-methoxy-1H-pyrazole-3-carboxylic acid [(S)-2-((R)-1,2-dimethyl-propylcarbamoyl)-1-o-tolyl-ethyl]-amide], for which the IC50 is less than 100 nM.
As to `O=C(O)CC(NC(=O)c1cc(O)n(-c2ccc(Cl)cc2)n1)c1ccc(-c2ccccn2)cc1` (stereo not shown) [Example 515, 3-{[1-(4-Chloro-phenyl)-5-hydroxy-1H-pyrazole-3-carbonyl]-amino}-3-(4-pyridin-2-yl-phenyl)-propionic acid], the IC50 lay within 100 to 1000 nM.
On the same count and under the same terms, for `Cc1c(F)cccc1C(CC(=O)O)NC(=O)c1cc(O)n(-c2ccccc2F)n1` (stereo not shown) [Example 516, 3-(3-Fluoro-2-methyl-phenyl)-3-{[1-(2-fluoro-phenyl)-5-hydroxy-1H-pyrazole-3-carbonyl]-amino}-propionic acid] the value was 100 to 1000 nM; for `COc1cccc(F)c1C(CC(=O)O)NC(=O)c1cc(O)n(-c2ccccc2)n1` (stereo not shown) [Example 441, 3-(2-Fluoro-6-methoxy-phenyl)-3-[(5-hydroxy-1-phenyl-1H-pyrazole-3-carbonyl)-amino]-propionic acid], 100 to 1000 nM.

The IC50 is the point on the concentration scale where inhibition reaches its midpoint.
